Measurements published in patent US8193175B2, “Ruthenium complexes for treating cancers” (Universite de Strasbourg, priority 2004, dated 2012).

Columns and labels:
A172 cells = assay: Western blot of p53, p73, p21 and Bax in A172 cells; format: cell-based, human
Procedure: FIG. 3: Detection of p53 and p73 in A172 cells treated with CDR. The A172 cells were treated with the concentrations indicated (2, 5 or 10 μM) with the various compounds and for the periods of time indicated (24 hrs or 6 hrs). The proteins were extracted with a lysis buffer and were separated on 10% SDS-Page gel. After being transferred onto nitrocellulose, the p53 and p73 proteins were detected by Western blot using anti-p53 (pAb1801) and anti-p73 (1/200, Ab2, Oncogene) antibody.
FIG. 4: Detection of p21 and Bax in A172 cells treated with CDR. The A172 cells were treated with the various compounds (10 μM) for 24 hrs. The proteins were extracted with a lysis buffer and were separated on 10% SDS-Page gel. After being transferred onto nitrocellulose, the p21 and Bax proteins were detected by Western blot using anti-p21 (1/200, Oncogene) and anti-Bax (1/2000, Santacruz) antibody.
(§1) For the purpose of determining the molecular mechanisms used by the ruthenium derivatives and comparing them with those induced by cisplatinum, the expression of p53, p73 p21 and bax in the A172 and HCT116 lines was analysed.

HCT116 cells = assay: Western blot of p53, p21 and phospho-histone H3 in HCT116 cells; format: cell-based, human; conditions: 10 μM
Procedure: FIG. 5: Detection of p53, p21 and of the phosphorylation of histone H3 in the HCT116 cells treated with CDR. The HCT116 cells were treated with the various compounds (10 μM) and for the periods of time indicated (24 hrs or 6 hrs). The proteins were extracted with a lysis buffer and were separated on 10% SDS-Page gel. After being transferred onto nitrocellulose, the p53, p21 proteins and histone H3 were detected by Western blot using anti-p53 (pAb1801), anti-p21 (1/200, Oncogene) antibody and anti-phospho serine 10 of histone H3 (1/2000, Santacruz).
as §1

RDM4 line = assay: Proliferation test (UptiBlue) on RDM4 line; format: cell-based, mouse; conditions: 72 hours
Procedure: The products are tested on different cell lines. The cells used are RDM4 from a murine T lymphoma and a MOLT-4 line originating from an acute lymphoblastic leukemia. These cancer lines both express the p53 protein, unlike the HL-60 cells from a human promyelocytary leukemia where, following deletion of its gene, p53 is absent.
All of these cells are cultivated in RPMI 1640-Glutamax, supplemented by 10% calf foetal serum heat inactivated at 56° C. for 30 minutes, 1 mM sodium pyruvate, 1 mM non-essential amino acids and 50 μg/mL gentamycine (Life Technologies, Cergy Pontoise, France). The cultures are kept in an incubator at 37° C. with a moisture saturated atmosphere, with 5% CO2.
This test uses the UptiBlue reagent (Interchim, Montluçon, France), metabolised by the living cells. The cells are incubated on plates with 96 wells with 10^4 cells/well (200 μL) with the product and cultivated for 72 hours. Then, 20 μL UptiBlue are added to each well. After 3 hours incubation, the fluorescence of the samples contained in the plates is measured at 590 nm (excitation at 560 nm), using a Fluorolite 1000 microplate reader (Dynex technologies, Issy-Les-Moulineaux, France).
The potential anti-cancers are first of all selected on the RDM4 line. The effect of the different organo-ruthenium compounds upon the cell viability is firstly determined by a proliferation test as a function of the product concentration. The activity of the compounds derived from Ru is compared to that of cisplatinum. The exposure of the RDM4 cells to these derivatives is translated by a dose-dependent reduction in their proliferation. Therefore, the effect is dependent upon the organic complex which surrounds the Ru nucleus. The inhibition concentration of the growth of 50% of the cells (IC50) is determined for each of the products. […] The ruthenium derivatives showing an excessive IC50 (>50 μM) were eliminated from the biological study.

RDM4 [1] = assay: Apoptosis by marking with Annexin-V on RDM4; format: cell-based, mouse
Procedure: Cell death is measured by a first specific marking of the apoptosis. The externalisation of the anionic phospholipids, normally located on the inner layer of the plasmic membrane, is one of the precocious markers of apoptosis (Martin et al, 1996). Annexin-V is a protein which fixes specifically onto the phosphatidylserines in the presence of calcium. When Annexin-V is coupled to a fluorochrome, it makes it possible to quantify the apoptotic cells by flux cytometry.
The control cells are treated with the equivalent volume of solvent (ethanol). […] After 72 hrs, the apoptosis rate is still as low as that of the control cells. On the other hand, with treatment at 45 μM, this rate already reaches 70% at 24 hrs and exceeds 99% after 48 hrs—a sign of significant apoptosis induction.

RDM4 [2] = assay: DNA fragmentation by marking with propidium iodure on RDM4; format: cell-based, mouse
Text: A second specific marking of apoptosis is the fragmentation of DNA between the nucleosomes. The fragmented DNA is located in the apoptotic bodies in the terminal phase of apoptosis. This DNA is hypodiploid and so less in quantity than that present in normal cells. It can be quantified by flux cytometry after permeabilisation of the cell membranes and marking with PI. The quantity of DNA in a normal cell is 2n in the G0/G1 phase and 4n in the G2 phase. Therefore, the sub-G0 DNA in a quantity of less than 2n has a weaker fluorescence intensity.
This phenomenon tends to diminish after 48 hrs of treatment. On the other hand, when the cells are treated with 45 μM, the formation of hypodiploid particles, visualised by the sub-G0 DNA content, is less than 10% at 24 hrs and exceeds 50% at 48 hrs such as to reach 60% at 72 hrs. […] The quantity of hypodiploid particles in the control cells remains less than 4% over this same period.

TK6 and NH32 cells = assay: Apoptosis by marking with Annexin-V on TK6 and NH32 cells; format: cell-based, human; conditions: 1.5 μM
Procedure: The toxicity of the organoruthenium complex on the TK6 and NH32 lymphoblastoid cells is measured with Annexin-V—a specific marker of precocious apoptosis. This marking is implemented on cells treated with derivative 11 at 1.5 μM after 0 hrs, 24 hrs, 48 hrs, 72 hrs and 96 hrs. […] Beyond 72 hrs, the apoptosis reaches the maximum limit of 90% and forms a plateau. In the control cells, the apoptosis rate remains less than 10% for the whole of the experiment. The increase over time of the externalisation of the anionic phospholipids is similar in the two cell lines, but the TK6 cells enter into apoptosis with a delay of a dozen hours on their p53-deficient variants. The NH32 line reaches the limit formed by the 90% plateau earlier than the TK6 cells. The p53 protein seems to slow down activation of the precocious signs of apoptosis induced by the Ru complexes.

[3] = Preliminary toxicity experiment on healthy SWISS mice; format: in vivo; conditions: small number of healthy SWISS mice

In the case of N.N.[Cl][Pt][Cl] [Cisplatinum, reference compound], the “expression of p21 and Bax” value (A172 cells; 10 μM, 24 hours treatment) was “induces the expression of p21 and Bax”, the p53 proteic levels (A172 cells; 6 hrs treatment) was “induce p53” and the p53 proteic levels (A172 cells; 24 hrs treatment) was “induces the p53 proteic levels”. The “increase in expression of p21 and inhibition of phosphorylation of histone H3” value (HCT116 cells) was “identical for CDR 6 and cisplatinum”.

For “[Ru(C6H4-2-C5H4N)(phen)(NCMe)2]PF6 [Compound 11]”, the IC50 (RDM4 line) was 11 µM, the “apoptosis rate (Annexin-V)” value (RDM4 [1]; 15 μM, up to 72 hrs) was “does not shown any effect” and the “apoptosis rate (Annexin-V)” value (RDM4 [1]; 45 μM, 24 hrs) was 70%. For the same molecule, the “cell cycle distribution (propidium iodure)” value (RDM4 [2]; 15 μM, first two days) was “accumulation in the G0/G1 phase”, the “hypodiploid particles (sub-G0 DNA content)” value (RDM4 [2]; 45 μM, 72 hrs) was 60% and the “externalisation of the phosphatidylserines (Annexin-V)” value (TK6 and NH32 cells; 48 hrs) was “exceeds 50%”. For the same molecule, the “externalisation of the phosphatidylserines (Annexin-V)” value (TK6 and NH32 cells; 72 hrs of continuous treatment) was 90% and the apparent toxicity [3] was “lack of apparent toxicity”.
